ChEMBL document CHEMBL1201862, “PubChem BioAssay data set” (2004)
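Test compounds were applied to cells in 96-well plates for 48 hours at 5 doses. Abbreviation: GI50, concentration required for 50% inhibition of growth.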 Activity calls are given as the source filed them. Rule as the data show it: active = GI50 up to about 1.1 µM and inactive = higher.

Tests used:
Test in all cases: inhibition of tumour cell growth, NCI panel, 48 h
ACHN = test system: ACHN
CCRF-CEM = test system: CCRF-CEM
HCT-116 = test system: HCT-116
LOX IMVI = test system: LOX IMVI
MOLT-4 = test system: MOLT-4
NCI-H23 = test system: NCI-H23
NCI-H522 = test system: NCI-H522
OVCAR-8 = test system: OVCAR-8
SK-MEL-5 = test system: SK-MEL-5
SNB-19 = test system: SNB-19
SW-620 = test system: SW-620
KM12 = test system: KM12
Malme-3M = test system: Malme-3M
SNB-75 = test system: SNB-75
UACC-257 = test system: UACC-257
SR = test system: SR

Measured: GI50

Cn1nc(-c2ccccc2)c(C(=O)/C=C/c2ccc(Cl)cc2)c(N2CCCC2)c1=O
inactive: ACHN 1.72 µM | CCRF-CEM 2.46 µM | HCT-116 2.56 µM | LOX IMVI 3.8 µM | MOLT-4 2.38 µM | NCI-H23 2.89 µM | NCI-H522 2.07 µM | OVCAR-8 4.91 µM | SK-MEL-5 5.46 µM | SNB-19 10 µM | SW-620 4.02 µM

COC1(C)CNCC(C)(C)NC(=O)C(C)(OC)CNCC(C)(C)NC1=O (stereo not given)
inactive: ACHN > 100 µM | CCRF-CEM > 100 µM | HCT-116 > 100 µM | KM12 > 100 µM | LOX IMVI > 100 µM | MOLT-4 > 100 µM | Malme-3M > 100 µM | NCI-H23 > 100 µM | NCI-H522 > 100 µM | OVCAR-8 > 100 µM | SK-MEL-5 > 100 µM | SNB-19 > 100 µM | SNB-75 > 100 µM | SW-620 49.4 µM | UACC-257 > 100 µM

C=CN1C(=O)[C@H](Oc2ccccc2)[C@@H]1c1ccccc1
inactive: ACHN 32 µM | CCRF-CEM 46.8 µM | HCT-116 24.9 µM | KM12 33 µM | MOLT-4 36.6 µM | Malme-3M 63.2 µM | NCI-H23 21.7 µM | NCI-H522 32.6 µM | OVCAR-8 23.8 µM | SK-MEL-5 31.5 µM | SNB-19 33.6 µM | SNB-75 15.6 µM | SR 40.3 µM | SW-620 33.3 µM | UACC-257 41.5 µM

CCN(CC)c1ccc(/N=N/c2ccc(-c3nc4cccnc4s3)cc2)cc1
inactive: ACHN > 100 µM | CCRF-CEM > 100 µM | HCT-116 > 100 µM | KM12 > 100 µM | MOLT-4 > 100 µM | Malme-3M > 100 µM | NCI-H23 > 100 µM | NCI-H522 > 100 µM | OVCAR-8 > 100 µM | SK-MEL-5 > 100 µM | SNB-19 > 100 µM | SNB-75 32.8 µM | SR > 100 µM | SW-620 > 100 µM | UACC-257 > 100 µM

Nc1ncnc2c1ncn2C1OC(CSCc2ccc(Cl)cc2)C(O)C1O (stereo not given)
inactive: ACHN 34.9 µM | CCRF-CEM 31.3 µM | HCT-116 19.8 µM | KM12 24.2 µM | LOX IMVI 37.3 µM | MOLT-4 10.7 µM | Malme-3M 56.9 µM | NCI-H23 24.2 µM | OVCAR-8 42.7 µM | SK-MEL-5 33.8 µM | SNB-19 35.9 µM | SNB-75 18.3 µM | SW-620 31.8 µM | UACC-257 31.3 µM

CC1=CC(O)(c2ccc(-c3ccccc3Cl)cc2)OC1=O (stereo not given)
inactive: ACHN > 100 µM | CCRF-CEM > 100 µM | KM12 > 100 µM | LOX IMVI > 100 µM | MOLT-4 > 100 µM | Malme-3M > 100 µM | NCI-H23 > 100 µM | NCI-H522 > 100 µM | OVCAR-8 > 100 µM | SK-MEL-5 > 100 µM | SNB-19 > 100 µM | SNB-75 43.1 µM | SW-620 > 100 µM | UACC-257 > 100 µM

CC(=O)CC(=O)CCC(=O)Nc1cccc(C(F)(F)F)c1
inactive: ACHN > 100 µM | CCRF-CEM > 100 µM | HCT-116 > 100 µM | KM12 > 100 µM | LOX IMVI > 100 µM | MOLT-4 > 100 µM | Malme-3M > 100 µM | NCI-H23 > 100 µM | NCI-H522 > 100 µM | OVCAR-8 > 100 µM | SK-MEL-5 > 100 µM | SNB-19 > 100 µM | SW-620 > 100 µM | UACC-257 > 100 µM

N#C/C(=C/c1cccc2ccccc12)C(=O)c1ccccc1
inactive: ACHN > 10 µM | CCRF-CEM 16.6 µM | HCT-116 18.5 µM | KM12 20.9 µM | LOX IMVI 19.5 µM | MOLT-4 14.7 µM | Malme-3M 21.5 µM | NCI-H23 17.8 µM | NCI-H522 21.5 µM | OVCAR-8 33 µM | SK-MEL-5 > 10 µM | SNB-19 19.9 µM | SR 26.9 µM | SW-620 16.8 µM | UACC-257 > 10 µM

O=C(c1ccccc1)N1C2C3CC(OCc4ccccc4)(OCc4ccccc4)C(O3)C21 (stereo not given)
inactive: ACHN > 100 µM | CCRF-CEM > 100 µM | HCT-116 > 100 µM | LOX IMVI > 100 µM | MOLT-4 > 100 µM | Malme-3M > 100 µM | NCI-H23 > 100 µM | NCI-H522 > 100 µM | OVCAR-8 > 100 µM | SK-MEL-5 > 100 µM | SNB-19 > 100 µM | SNB-75 > 100 µM | SW-620 > 100 µM

O=c1cccccc1O.O=c1cccccc1O.O=c1cccccc1O.[SiH4]
inactive: ACHN 10 µM | CCRF-CEM 2.64 µM | HCT-116 13.6 µM | KM12 26.8 µM | MOLT-4 5.74 µM | Malme-3M 54.6 µM | NCI-H23 16.5 µM | NCI-H522 2.33 µM | OVCAR-8 11.5 µM | SK-MEL-5 24.8 µM | SNB-19 > 100 µM | SNB-75 29.1 µM | SW-620 10.4 µM | UACC-257 21 µM
